Results reported in US6762200B2, “Oxa(thia)zolidine derivative and anti-inflammatory drug” (Nippon Soda Co. Ltd., priority 2000, dated 2004).
Like-named read-outs stand apart in the source and are kept apart here. One block for each molecule: values may come before it.

What was measured:
IV-cPLA(2) = target: T1, IV-cPLA(2) (Homo sapiens, UniProt P47712); test: PLA(2) activity, hydrolysis of bis-BODIPY FL C11-PC in activated U937 cells; assay type: cell-based
T1 sequence (P47712 1-749): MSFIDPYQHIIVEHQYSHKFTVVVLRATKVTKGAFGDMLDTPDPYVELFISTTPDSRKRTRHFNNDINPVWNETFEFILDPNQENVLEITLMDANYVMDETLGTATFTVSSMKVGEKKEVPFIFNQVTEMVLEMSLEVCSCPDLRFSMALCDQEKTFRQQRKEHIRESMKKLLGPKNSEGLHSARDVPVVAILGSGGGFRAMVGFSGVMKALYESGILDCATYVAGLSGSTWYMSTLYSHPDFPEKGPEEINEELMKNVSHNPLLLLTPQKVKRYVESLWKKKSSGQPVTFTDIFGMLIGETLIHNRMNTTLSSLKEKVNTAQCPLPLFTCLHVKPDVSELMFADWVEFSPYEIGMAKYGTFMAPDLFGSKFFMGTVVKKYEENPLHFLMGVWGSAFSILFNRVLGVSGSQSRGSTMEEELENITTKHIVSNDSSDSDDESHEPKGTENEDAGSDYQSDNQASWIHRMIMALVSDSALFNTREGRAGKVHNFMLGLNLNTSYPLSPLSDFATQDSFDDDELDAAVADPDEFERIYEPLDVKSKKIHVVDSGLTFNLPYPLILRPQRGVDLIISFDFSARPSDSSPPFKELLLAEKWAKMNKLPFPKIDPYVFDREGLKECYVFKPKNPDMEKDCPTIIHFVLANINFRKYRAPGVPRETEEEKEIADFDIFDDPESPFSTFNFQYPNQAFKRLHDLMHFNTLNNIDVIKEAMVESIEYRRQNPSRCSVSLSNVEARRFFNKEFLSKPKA
Procedure: The PLA(2) activity was measured by quantitatively analyzing the fluorescent product of hydrolysis from 1,2-bis-(4,4-difluoro-5,7-dimethyl-4-bora-3a,4a-diaza-s-indecene-3-undecanoyl)-sn-glycero-3-phosphocholine (hereinafter referred to bis-BODIPY®FL C11—PC, Molecular Probes, Inc., B-7701) using activated U937 cells (human monoblastic lymphoma cell line) by inflammatory stimulus (Meshulam, T. et al., The journal of Biological Chemistry 267 (30): 21465-21470 (1992); and Solito, E. et al., British Journal of Pharmacology 124: 1675-1683 (1998).). The substrate bis-BODIPY®FL C11—PC is incorporated into cellular membranes, the proximity of the BODIPY FL fluorophores on adjacent phospholipid acyl chains causes fluorescence self-quenching. Separation of the fluorophores upon hydrolytic cleavage of one of the acyl chains by PLA(1) or the PLA(2) results in increased fluorescence. In the activated U937 by inflammatory stimulus, it is shown that this substrate should be cleaved enzymatically by IV-cPLA(2) from the feature of its behaviors including sensitivity profiles against the inhibitors.
The human cell line U937 was purchased from Dai-Nippon Pharmaceuticals Co., Ltd. The cells were maintained by transferring every 3-4 days into RPMI 1640 medium (Sigma Chemical Co., R6504) supplemented with heat-inactivated 10% fetal bovine serum (Fetal Bovine Serum, Sigma Chemical Co., F 4135) in a 5% CO2 humidified atmosphere at 37° C. The cells were transferred into the culture medium described above, containing 1.2% (v/v) dimethylsulfoxide (hereinafter referred to as […], Nacalai tesque Co., Ltd., D 134-45), and pre-cultured for 96 to 120 hours so as to differentiate into the macrophage-like cells to be provided for the assay. The macrophage-like cells were collected and washed by centrifugation with the Assay medium (Dulbecco's phosphate buffered saline (hereinafter referred to as PBS)-2.2 mM glucose-2.5 μm albumin). Then, Phorbol 12-Myristate 13-Acetate (hereinafter referred to as TPA, Sigma Chemical Co., P 8139) was added to the Assay medium to be 1×10^−8M as the final concentration. Then, the macrophage-like cells were further cultured for an hour to be activated (Rzigalinski, B. A. & Rosenthal, M. D., Biochimica et Biophysica Acta 1223: 219-225 (1994); and Gonchar, M. V. et al., Biochemical and Biophysical Research Communication, 249: 829-832 (1998).).
For preparing substrate liposome suspension, bis-BODIPY®FL C11—PC was combined with phosphatidylcholine (Sigma Chemical Co., P 7769) at 1:9 molar ratio in chloroform, and dried under nitrogen flow. The dried mixture was suspended with the Assay medium at 100 μg/mL, voltexed and sonicated for an hour on ice under dark condition.
The test compound was dissolved with DMSO at 30 mM, and the solution diluted with either DMSO or the Assay medium before addition into the reaction mixture. The DMSO concentration in the reaction mixture was controlled so as to be no more than 0.1%. The 30-fold concentration of test compound solution was put into each well of MICRPTEST™ Tissue Culture Plate, 96 Well (Falcon, 3072) at a rate of 2.5 μL/well. To the respective well was added 25 μL/well of the activated U937 cell suspension ([…]), and the cells were pre-cultured for 120 min. at 37° C. in a 5% CO2 atmosphere incubator. 47.5 μL/well of the substrate liposome suspension with 1.5×10^−6M A23187 (Sigma Chemical Co., C 7522) was added into each well to prepare 75 μL/well of the total reaction mixture, followed by culture for 30 min. under the same conditions with shielding against light. 100 μL/well of 0.1% GEDTA (Dojindo Laboratories Co. Ltd., 348-01311) methanol solution was added into each well and mixed to stop the reaction. […]

[1] = test system: picryl chloride-induced contact dermatitis (ear swelling); test: Mouse delayed contact dermatitis induced by picryl chloride; settings: for Ear swelling after 24 hours Left (Not applied) (Mean ± S.E., mm): topical to right ear, non-treated left ear; for Ear swelling after 24 hours Right (Applied) (Mean ± S.E., mm): topical
Procedure: This pharmacological test was carried out referring to the method of Asherson, G. L. & Ptak, W. (Immunology, 15: 405-416 (1968).) and the method of Jun Hiroi (Folia Pharmacology of Japan, 86: 233-239 (1985).). More specifically, hairs on the abdomen of an ICR-strain male mouse were removed using an electric clip and an electric shaver. Then, 0.1 mL of 7% ether solution of picryl chloride (Tokyo Kasei Kogyo Co., Ltd., C 0307) was applied onto the abdomen for sensitization. On the sixth day after the sensitization, 20 μL/ear of 1% olive oil solution of picryl chloride was topically applied to the anterior and posterior surfaces of both ears of the mouse to induce contact dermatitis (first induction). Before and 24 hours after the induction, the thicknesses of the particular parts on the both ears were measured three times, respectively, using a digimatic micrometer (Mitsutoyo Co., Ltd.) to work out the average values. Ear edema of the both ears was respectively determined by subtracting the average thickness of the each ear before the induction from that on 24 hours after the induction, so that a grouping was carried out to separate the appropriate individuals. On the fourth day after the first induction, the hairs on the abdomen were removed again, and 0.1 mL of 7% ethanol solution of picryl chloride was applied thereto for additional sensitization. The contact dermatitis for evaluating activity was induced by re-applying 20 μL/ear of 1% olive oil solution of picryl chloride to the anterior and posterior surfaces of both ears (second induction) on the seventh day after the additional sensitization (on the […] day after the first sensitization). The activity of each compound of the present invention was evaluated as the inhibition on the contact dermatitis as compared with that of the vehicle applied control. That is, the thicknesses of the particular portions of the both ears were measured respectively three times with a digimatic micrometer to work out the mean values before, 24 hours and 48 hours after the second induction. Ear swelling was determined by subtracting the ear thickness before the second induction from that on 24 hours and 48 hours after the second induction, respectively. Topical application activity was evaluated by applying 25 μL of the acetone solution of the compound of the present invention similarly to the anterior and posterior surfaces of the right ear one hour before and 16 hours after the second induction. As the positive control, 0.02 mg/20 μL of acetone solution of Dexamethasone (hereinafter referred to as DEX, Wako Pure Chemical Industries Ltd., 047-18863) was applied similarly as for the compound of the present invention. With respect to the inhibitory activity in topical application tests, the topical activity was determined by the inhibition of the applied right ear edema, and the translocation and distribution property was determined by the activity onto the swelling of non-treated left ear. Oral administration activity was evaluated by administrating 0.5% methyl cellulose suspension of the compound of the present invention forcibly and perorally to the mouse an hour before and 16 hours after the second induction. As the positive control, 20 mg/kg of Prednisolone (Sigma Chemical Co., P 6004) suspension was administrated similarly as for the compounds of the present invention.

[2] = test system: acetic acid-induced writhes; test: Acetic acid writhing; assay type: in vivo, ICR-strain male mouse; settings: i.p., 10 to 20 min after acetic acid
Procedure: This test was carried out referring to the method of Inoue, K., Motonaga, A. & Nishimura, T (Arzneimittel Forshung/Drug Research, 41 (1): 235-239 (1991)). More specifically, 7.5 mL/kg of 0.9% acetic acid solution was injected intraperitoneally into an ICR-strain male mouse (5 to 7 weeks old), and the induced writhes (characteristic behaviors of convulsive contracting the abdomen, twisting the body and/or extending the legs) were observed. Number of writhes of each mouse was measured during 10 to 20 min. period after acetic acid administration. The compound of the present invention was homogeneously suspended in 2% Tween 80/saline for injection use, and was injected intraperitoneally 30 min. before the induction by the acetic acid injection. Alternatively, the compound of the present invention was homogeneously suspended in 2% Tween 80/distilled water, and was administrated orally two hours before the induction by the acetic acid injection. The analgesic activity of the compounds according to the present invention was evaluated on the basis of the degree of inhibiting the number writhes by the administration of the compounds. As the positive control, indomethacin or aspirin was administrated. The analgesic activity of the compounds according to the present invention measured in this test were exemplified in Table 7.

TPA-induced ear edema = assay type: in vivo, ICR-strain male mouse; settings: topical, 6 hours after TPA
Procedure: This test was carried out referring to the method of Carlson, R. P. et al. (Agents and Actions, 17(2): 197-204 (1985).) and the method of Chang, J. (European Journal of Pharmacology, 142: 197-205 (1987).). […] 6 hours later, the thickness of each ear at the particular part was respectively measured three times using a digimatic micrometer to calculate the mean value. Ear edema was determined by subtracting the mean thickness of the left ear as without treatment from that of the right ear as TPA-applied. […] As the positive control, 100 mg/kg of Hydrocortisone (Sigma Chemical Co., H 4001) suspension was applied to the mouse similarly as for the compound of the present invention.

Inhibition (%) (IV-cPLA(2); 1 μM): 78%
Structure (SMILES): CC1C(c2ccc(Cl)cc2)SC(=O)N1C(=S)NC1CCCCC1 (stereo not drawn) [Compound 2-194]
Ear swelling after 24 hours Left (Not applied) (Mean ± S.E., mm) ([1]; 1.5 mg/25 μL/ear × 2): 0.226 ± 0.016 mm
Ear swelling after 24 hours Right (Applied) (Mean ± S.E., mm) ([1]; 1.5 mg/25 μL/ear × 2): 0.223 ± 0.010 mm

Structure (SMILES): COc1ccc2c(c1)c(CC(=O)O)c(C)n2C(=O)c1ccc(Cl)cc1 [Indomethacin, indomethacin, reference compound]
Number of writhes (Mean ± S.E.) ([2]; 3 mg/kg): 13.8 ± 3.0
Number of writhes (Mean ± S.E.) ([2]; 10 mg/kg): 4.8 ± 0.9

Structure (SMILES): C[C@@H]1C[C@H]2[C@@H]3CCC4=CC(=O)C=C[C@]4(C)[C@@]3(F)[C@@H](O)C[C@]2(C)[C@@]1(O)C(=O)CO [DEX, Dexamethasone, reference compound]
Change in body weight 48 hours after induction (Mean ± S.E.) ([1]; 0.02 mg/ear × 2): -1.42 ± 0.20 g
Change in body weight 48 hours after induction (Mean ± S.E.) (%) ([1]; 0.02 mg/ear × 2): −4.30 ± 0.59%
General condition and body weight of mice ([1]; 48 hours after the second induction): generally bad symptoms and reducing their body weight significantly
Ear swelling after 24 hours Left (Not applied) (Mean ± S.E., mm) ([1]; dose 0.02 mg/ear × 2): −0.005 ± 0.033 mm
Ear swelling after 24 hours Right (Applied) (Mean ± S.E., mm) ([1]; dose 0.02 mg/ear × 2): 0.057 ± 0.009 mm

Inhibition (%) (IV-cPLA(2); 0.1 μM): 100%
Structure (SMILES): Cc1ccc(C2OC(=O)N(C(=O)NS(=O)(=O)c3ccccc3C)C2C)cc1 (stereo not drawn) [Compound 2-60]
Ear Edema Inhibition (%) (TPA-induced ear edema; 1 mg/40 μL/ear × 2): 53%

Inhibition (%) (IV-cPLA(2); 0.1 μM): 85%
Structure (SMILES): CC1C(c2ccccn2)OC(=O)N1C(=O)Nc1ccc(Cl)cc1 (stereo not drawn) [Compound 2-146]
Ear Edema Inhibition (%) (TPA-induced ear edema; 1 mg/40 μL/ear × 2): 80%

Structure (SMILES): CC(=O)Oc1ccccc1C(=O)O [Aspirin, aspirin, reference compound]
Number of writhes (Mean ± S.E.) ([2]; 30 mg/kg): 9.5 ± 2.0

Inhibition (%) (IV-cPLA(2); 0.1 μM): 61%
Structure (SMILES): CC1C(c2ccc(Cl)cc2)SC(=O)N1C(=O)NS(=O)(=O)c1ccccc1Cl (stereo not drawn) [Compound 2-36]
Ear Edema Inhibition (%) (TPA-induced ear edema; 0.3 mg/20 μL/ear × 2): 41%

Inhibition (%) (IV-cPLA(2); 0.1 μM): 68%
Structure (SMILES): Cc1ccc(C2OC(=NC(=O)c3c(C)cccc3Cl)NC2C)cc1 (stereo not drawn) [Compound 1-73]
Ear Edema Inhibition (%) (TPA-induced ear edema; 1 mg/40 μL/ear × 2): 86%

Inhibition (%) (IV-cPLA(2); 0.1 μM): 62%
Structure (SMILES): CC1C(c2ccc3c(c2)CCCC3)OC(=O)N1C(=O)NC1CCCCO1 (stereo not drawn) [Compound 2-125]
Ear Edema Inhibition (%) (TPA-induced ear edema; 1 mg/40 μL/ear × 2): 62%

Structure (SMILES): CC(=O)N=C1SC(c2ccccc2)C(C)N1C(=O)NC1CCCCC1 (stereo not drawn) [Compound 1-43]
Ear swelling after 24 hours Left (Not applied) (Mean ± S.E., mm) ([1]; 1.5 mg/25 μL/ear × 2): 0.201 ± 0.008 mm
Ear swelling after 24 hours Right (Applied) (Mean ± S.E., mm) ([1]; 1.5 mg/25 μL/ear × 2): 0.196 ± 0.029 mm

Structure (SMILES): CC1C(c2ccc(C(=O)OC(F)(F)F)cc2)SC(=O)N1C(=O)NC1CCCCO1 (stereo not drawn) [Compound 2-240]
Ear swelling after 24 hours Left (Not applied) (Mean ± S.E., mm) ([1]; 1.5 mg/25 μL/ear × 2): 0.238 ± 0.024 mm
Ear swelling after 24 hours Right (Applied) (Mean ± S.E., mm) ([1]; 1.5 mg/25 μL/ear × 2): 0.246 ± 0.009 mm

Inhibition (%) (IV-cPLA(2); 0.1 μM): 93%
Structure (SMILES): CC(C)N=C1OC(c2ccc(Cl)cc2)C(C)N1C(=O)NC1CCCCC1 (stereo not drawn) [Compound 1-28]
Ear Edema Inhibition (%) (TPA-induced ear edema; 1 mg/20 μL/ear × 2): 36%
